One experiment deals with T1, Aurora A (Homo sapiens, UniProt O14965).
T1 sequence (O14965 1-403): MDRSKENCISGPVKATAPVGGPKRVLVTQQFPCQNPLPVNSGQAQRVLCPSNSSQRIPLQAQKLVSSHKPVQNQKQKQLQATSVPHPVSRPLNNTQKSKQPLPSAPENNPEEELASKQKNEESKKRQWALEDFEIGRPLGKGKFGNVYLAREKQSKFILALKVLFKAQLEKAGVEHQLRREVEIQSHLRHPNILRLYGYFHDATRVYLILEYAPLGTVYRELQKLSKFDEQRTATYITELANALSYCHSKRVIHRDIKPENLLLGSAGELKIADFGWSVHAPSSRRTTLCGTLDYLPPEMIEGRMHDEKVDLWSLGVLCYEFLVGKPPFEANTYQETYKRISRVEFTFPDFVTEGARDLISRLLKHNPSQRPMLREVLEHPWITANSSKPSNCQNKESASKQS
The experiment is described as follows: Aurora A enzyme inhibition (time-resolved fluorescence, STK substrate-2). The conditions noted are these: 1 mM ATP. The experiment is classed as biochemical. The procedure, abridged: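 Active enzyme incubated 1 h with biotinylated STK substrate-2, 1 mM ATP and inhibitor in Hepes pH 7.4 with MgCl2, orthovanadate and Triton X-100. EDTA stop; phosphopeptide detected by Eu-cryptate anti-phospho-STK/SA-XL665 TR-FRET (665/615 nm ratio); IC50 by exponential fit.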

The target in another experiment is KDR (Homo sapiens, UniProt P35968). Briefly: KDR HTRF in vitro kinase assay. The conditions noted are these: 1 mM ATP; read-out: KDR enzyme inhibition data (Ki). Format: biochemical. Set-up: purified enzyme (His6-KDR 789-1354, MW 63 kD); His6 (N). Summed up:
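His6-KDR 789-1354 (7 ng/well) with 0.5 μM biotinylated peptide substrate and 1 mM ATP in HEPES pH 7.1, MgCl2/MnCl2, 60 min at room temperature. EDTA-quenched, detected by streptavidin-XL-665 plus Eu-kryptate anti-phosphotyrosine HTRF after 3 h; IC50 from 620/665 nm ratio.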
A general note: Time-resolved FRET reads energy transfer from a long-lived donor to a nearby acceptor.

What is called Ki is the dissociation constant of the complex between target and ligand, obtained from inhibition or displacement.

Chain of KDR (P35968 789-1354): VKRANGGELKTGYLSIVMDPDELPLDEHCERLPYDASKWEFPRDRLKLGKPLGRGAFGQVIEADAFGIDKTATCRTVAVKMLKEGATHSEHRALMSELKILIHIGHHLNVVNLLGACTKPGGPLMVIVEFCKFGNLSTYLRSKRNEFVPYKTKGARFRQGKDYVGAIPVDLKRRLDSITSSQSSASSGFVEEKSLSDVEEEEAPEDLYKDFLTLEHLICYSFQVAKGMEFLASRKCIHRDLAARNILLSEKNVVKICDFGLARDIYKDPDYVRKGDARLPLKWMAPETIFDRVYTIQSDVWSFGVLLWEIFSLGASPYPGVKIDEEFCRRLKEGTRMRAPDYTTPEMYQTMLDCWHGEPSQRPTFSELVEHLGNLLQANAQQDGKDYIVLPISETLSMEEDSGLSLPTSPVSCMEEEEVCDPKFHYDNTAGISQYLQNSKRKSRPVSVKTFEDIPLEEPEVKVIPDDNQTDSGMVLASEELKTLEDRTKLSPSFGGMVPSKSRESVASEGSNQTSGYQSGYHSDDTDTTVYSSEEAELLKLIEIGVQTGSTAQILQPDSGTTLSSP

For `NC(=O)[C@@H]1[C@H](Nc2nc(Nc3cnn([C@H]4CCOC4)c3)ncc2Cl)[C@H]2C=C[C@@H]1C2` [Example 108, (1S,2S,3R,4R)-3-{[5-chloro-2-({1-[(3S)-tetrahydrofuran-3-yl]-1H-pyrazol-4-yl}amino)pyrimidin-4-yl]amino}bicyclo[2.2.1]hept-5-ene-2-carboxamide], the inhibition constant (Ki) at Aurora A and on KDR was less than 100 nM in each case.
In the case of `Cn1cc(Nc2ncc(C(F)(F)F)c(Nc3ccccc3C3(O)CNC3)n2)cn1` [Example 109, 3-[2-({2-[(1-methyl-1H-pyrazol-4-yl)amino]-5-(trifluoromethyl)pyrimidin-4-yl}amino)phenyl]azetidin-3-ol], the Ki on Aurora A and on KDR was less than 100 nM in each case.
Take `COCCOCCn1cc(Nc2ncc(Br)c(N[C@H]3[C@@H](C(N)=O)[C@@H]4C=C[C@H]3C4)n2)cn1` [Example 110, (1S,2S,3R,4R)-3-{[5-bromo-2-({1-[2-(2-methoxyethoxy)ethyl]-1H-pyrazol-4-yl}amino)pyrimidin-4-yl]amino}bicyclo[2.2.1]hept-5-ene-2-carboxamide]: the Ki at Aurora A and at KDR was less than 100 nM each time.
Take `CC(C)CCn1cc(Nc2ncc(Br)c(N[C@H]3[C@@H](C(N)=O)[C@@H]4C=C[C@H]3C4)n2)cn1` [Example 111, (1S,2S,3R,4R)-3-[(5-bromo-2-{[1-(3-methylbutyl)-1H-pyrazol-4-yl]amino}pyrimidin-4-yl)amino]bicyclo[2.2.1]hept-5-ene-2-carboxamide]: the inhibition constant (Ki) on Aurora A and at KDR was less than 100 nM in each case.
Regarding `CC(C)n1cc(Nc2ncc(Br)c(N[C@H]3[C@@H](C(N)=O)[C@@H]4C=C[C@H]3C4)n2)cn1` [Example 112, (1S,2S,3R,4R)-3-({5-bromo-2-[(1-isopropyl-1H-pyrazol-4-yl)amino]pyrimidin-4-yl}amino)bicyclo[2.2.1]hept-5-ene-2-carboxamide], the Ki on Aurora A and at KDR was less than 100 nM each time.
Regarding `Cn1cc(Nc2ncc(C(F)(F)F)c(Nc3ccccc3C3(O)CCC3)n2)cn1` [Example 115, 1-[2-({2-[(1-methyl-1H-pyrazol-4-yl)amino]-5-(trifluoromethyl)pyrimidin-4-yl}amino)phenyl]cyclobutanol], the Ki at Aurora A and on KDR was less than 100 nM throughout.
In the case of `NC(=O)[C@@H]1[C@H](Nc2nc(Nc3cnn([C@@H]4CCOC4)c3)ncc2Br)[C@H]2C=C[C@@H]1C2` [Example 116, (1S,2S,3R,4R)-3-{[5-bromo-2-({1-[(3R)-tetrahydrofuran-3-yl]-1H-pyrazol-4-yl}amino)pyrimidin-4-yl]amino}bicyclo[2.2.1]hept-5-ene-2-carboxamide], the Ki at Aurora A and at KDR was less than 100 nM in each case.
Regarding `NC(=O)[C@@H]1[C@H](Nc2nc(Nc3cnn([C@H]4CCOC4)c3)ncc2Br)[C@H]2C=C[C@@H]1C2` [Example 117, (1S,2S,3R,4R)-3-{[5-bromo-2-({1-[(3S)-tetrahydrofuran-3-yl]-1H-pyrazol-4-yl}amino)pyrimidin-4-yl]amino}bicyclo[2.2.1]hept-5-ene-2-carboxamide], the Ki at Aurora A and on KDR was less than 100 nM throughout.
In the case of `NC(=O)[C@@H]1[C@H](Nc2nc(Nc3cnn(C4CCC4)c3)ncc2Cl)[C@H]2C=C[C@@H]1C2` [Example 118, (1S,2S,3R,4R)-3-({5-chloro-2-[(1-cyclobutyl-1H-pyrazol-4-yl)amino]pyrimidin-4-yl}amino)bicyclo[2.2.1]hept-5-ene-2-carboxamide], the inhibition constant (Ki) at Aurora A and at KDR was less than 100 nM in each case.
Consider `CS(=O)(=O)CCn1cc(Nc2ncc(Cl)c(N[C@H]3[C@@H](C(N)=O)[C@@H]4C=C[C@H]3C4)n2)cn1` [Example 119, (1S,2S,3R,4R)-3-{[5-chloro-2-({1-[2-(methylsulfonyl)ethyl]-1H-pyrazol-4-yl}amino)pyrimidin-4-yl]amino}bicyclo[2.2.1]hept-5-ene-2-carboxamide], for which the inhibition constant Ki on Aurora A and on KDR was less than 100 nM each time.
For `CS(=O)(=O)CCn1cc(Nc2ncc(Br)c(N[C@H]3[C@@H](C(N)=O)[C@@H]4C=C[C@H]3C4)n2)cn1` [Example 122, (1S,2S,3R,4R)-3-{[5-bromo-2-({1-[2-(methylsulfonyl)ethyl]-1H-pyrazol-4-yl}amino)pyrimidin-4-yl]amino}bicyclo[2.2.1]hept-5-ene-2-carboxamide], the inhibitory constant (Ki) at Aurora A and at KDR was less than 100 nM throughout.
Turning to `NC(=O)[C@@H]1[C@H](Nc2nc(Nc3cnn(C4CCC4)c3)ncc2Br)[C@H]2C=C[C@@H]1C2` [Example 123, (1S,2S,3R,4R)-3-({5-bromo-2-[(1-cyclobutyl-1H-pyrazol-4-yl)amino]pyrimidin-4-yl}amino)bicyclo[2.2.1]hept-5-ene-2-carboxamide], the Ki on Aurora A and at KDR was less than 100 nM in each case.
Consider `NC(=O)[C@@H]1[C@H](Nc2nc(Nc3cnn(C[C@H](O)CO)c3)ncc2Cl)[C@H]2C=C[C@@H]1C2` [Example 124, (1S,2S,3R,4R)-3-{[5-chloro-2-({1-[(2S)-2,3-dihydroxypropyl]-1H-pyrazol-4-yl}amino)pyrimidin-4-yl]amino}bicyclo[2.2.1]hept-5-ene-2-carboxamide], for which the Ki on Aurora A and on KDR was less than 100 nM in each case.
For the compound `NC(=O)[C@@H]1[C@H](Nc2nc(Nc3cnn(CC4CCO4)c3)ncc2Cl)[C@H]2C=C[C@@H]1C2` (stereo partly drawn) [Example 129, (1S,2S,3R,4R)-3-[(5-chloro-2-{[1-(oxetan-2-ylmethyl)-1H-pyrazol-4-yl]amino}pyrimidin-4-yl)amino]bicyclo[2.2.1]hept-5-ene-2-carboxamide], the inhibitory constant (Ki) at Aurora A and at KDR was less than 100 nM throughout.
In the case of `NC(=O)[C@@H]1[C@H](Nc2nc(Nc3cnn(C[C@@H](O)CO)c3)ncc2Cl)[C@H]2C=C[C@@H]1C2` [Example 130, (1S,2S,3R,4R)-3-{[5-chloro-2-({1-[(2R)-2,3-dihydroxypropyl]-1H-pyrazol-4-yl}amino)pyrimidin-4-yl]amino}bicyclo[2.2.1]hept-5-ene-2-carboxamide], the Ki on Aurora A and on KDR was less than 100 nM throughout.
Consider `NC(=O)[C@@H]1[C@H](Nc2nc(Nc3cnn(C[C@H](O)CO)c3)ncc2Br)[C@H]2C=C[C@@H]1C2` [Example 131, (1S,2S,3R,4R)-3-{[5-bromo-2-({1-[(2S)-2,3-dihydroxypropyl]-1H-pyrazol-4-yl}amino)pyrimidin-4-yl]amino}bicyclo[2.2.1]hept-5-ene-2-carboxamide], for which the Ki at Aurora A and on KDR was less than 100 nM throughout.
As for `Cn1cc(Nc2ncc(Br)c(Nc3ccccc3C3(O)CCC3)n2)cn1` [Example 132, 1-[2-({5-bromo-2-[(1-methyl-1H-pyrazol-4-yl)amino]pyrimidin-4-yl}amino)phenyl]cyclobutanol], the Ki on Aurora A and at KDR was less than 100 nM throughout.
`Cc1nn(C)cc1Nc1ncc(Cl)c(N[C@H]2[C@@H](C(N)=O)[C@@H]3C=C[C@H]2C3)n1` [Example 134, (1S,2S,3R,4R)-3-({5-chloro-2-[(1,3-dimethyl-1H-pyrazol-4-yl)amino]pyrimidin-4-yl}amino)bicyclo[2.2.1]hept-5-ene-2-carboxamide]: the inhibition constant (Ki) at Aurora A and at KDR was less than 100 nM in each case.
As for `Cc1nn(C)cc1Nc1ncc(Br)c(N[C@H]2[C@@H](C(N)=O)[C@@H]3C=C[C@H]2C3)n1` [Example 135, (1S,2S,3R,4R)-3-({5-bromo-2-[(1,3-dimethyl-1H-pyrazol-4-yl)amino]pyrimidin-4-yl}amino)bicyclo[2.2.1]hept-5-ene-2-carboxamide], the inhibitory constant (Ki) on Aurora A and on KDR was less than 100 nM throughout.
As for `Cn1cc(Nc2ncc([N+](=O)[O-])c(N[C@H]3[C@@H](C(N)=O)[C@@H]4C=C[C@H]3C4)n2)cn1` [Example 139, (1S,2S,3R,4R)-3-({2-[(1-methyl-1H-pyrazol-4-yl)amino]-5-nitropyrimidin-4-yl}amino)bicyclo[2.2.1]hept-5-ene-2-carboxamide], the Ki on Aurora A and on KDR was less than 100 nM throughout.
Turning to `CCn1cc(Nc2ncc([N+](=O)[O-])c(N[C@H]3[C@@H](C(N)=O)[C@@H]4C=C[C@H]3C4)n2)cn1` [Example 140, (1S,2S,3R,4R)-3-({2-[(1-ethyl-1H-pyrazol-4-yl)amino]-5-nitropyrimidin-4-yl}amino)bicyclo[2.2.1]hept-5-ene-2-carboxamide], the inhibitory constant (Ki) at Aurora A and on KDR was less than 100 nM each time.
On to `NC(=O)[C@@H]1[C@H](Nc2nc(Nc3cnn(CCc4ccccc4)c3)ncc2Cl)[C@H]2C=C[C@@H]1C2` [Example 143, (1S,2S,3R,4R)-3-[(5-chloro-2-{[1-(2-phenylethyl)-1H-pyrazol-4-yl]amino}pyrimidin-4-yl)amino]bicyclo[2.2.1]hept-5-ene-2-carboxamide], for which the Ki at Aurora A and at KDR was less than 100 nM each time.

These data come from US8426408B2, “Pyrimidine inhibitors of kinases” (AbbVie Inc., priority 2009, dated 2013).
